Earlier results as cited in US10253031B2, “Stable pemetrexed arginine salt and compositions comprising it” (SYNTHON B.V., priority 2013, dated 2019).
Counter-ions that a name gives are not always drawn.

Details: background statement

For `Nc1nc2[nH]cc(CCc3ccc(C(=O)N[C@@H](CCC(=O)O)C(=O)O)cc3)c2c(=O)[nH]1` [pemetrexed diacid, N-[4-[2-(2-amino-4,7-dihydro-4-oxo-1H-pyrrolo [2,3-d]pyrimidin-5-yl)ethyl]benzoyl]-L-glutamic acid], the Solubility in water is given as “sparingly soluble”.
In the case of `Nc1nc2[nH]cc(CCc3ccc(C(=O)N[C@@H](CCC(=O)O)C(=O)O)cc3)c2c(=O)[nH]1` [Disodium salt of pemetrexed], the Solubility in water is listed as “soluble in water”.
